Data reported in ChEMBL document CHEMBL1275384, “Structure-activity relationships of benzimidazole-based selective inhibitors of the mitogen activated kinase-5 signaling pathway” (2010).

What was measured:
[1] = molecular target: T1, Dual specificity mitogen-activated protein kinase kinase 5 (Homo sapiens) (UniProt Q13163); conditions: HEK293, at 10 µM;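 also: MEK5 activity stimulated by EGF, read out as phospho-ERK5 on Western blot after 1 h treatment, expressed relative to control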
T1 sequence (whole entry): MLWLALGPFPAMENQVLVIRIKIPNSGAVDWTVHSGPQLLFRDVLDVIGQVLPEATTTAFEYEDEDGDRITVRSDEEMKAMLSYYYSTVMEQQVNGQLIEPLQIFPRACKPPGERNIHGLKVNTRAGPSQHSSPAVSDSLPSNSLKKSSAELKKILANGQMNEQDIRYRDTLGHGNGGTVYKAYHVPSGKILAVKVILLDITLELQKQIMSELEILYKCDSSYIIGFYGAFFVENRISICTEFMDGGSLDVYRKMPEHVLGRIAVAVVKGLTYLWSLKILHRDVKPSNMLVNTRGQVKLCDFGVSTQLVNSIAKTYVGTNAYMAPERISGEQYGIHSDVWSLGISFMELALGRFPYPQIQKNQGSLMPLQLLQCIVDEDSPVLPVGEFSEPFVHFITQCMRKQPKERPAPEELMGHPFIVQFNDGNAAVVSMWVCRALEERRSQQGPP
Description: Inhibition of EGF-induced MEK5 activity in HEK293 cells assessed as phosphorylated ERK5 level at 10 uM after 1 hr by Western blotting relative to control

[2] = molecular target: Dual specificity mitogen-activated protein kinase kinase; MEK1/2 (Homo sapiens) (UniProt P36507+Q02750); conditions: HEK293, at 10 µM
Sequence of Dual specificity mitogen-activated protein kinase kinase; MEK1/2 (Homo sapiens) (P36507 whole entry, looked up): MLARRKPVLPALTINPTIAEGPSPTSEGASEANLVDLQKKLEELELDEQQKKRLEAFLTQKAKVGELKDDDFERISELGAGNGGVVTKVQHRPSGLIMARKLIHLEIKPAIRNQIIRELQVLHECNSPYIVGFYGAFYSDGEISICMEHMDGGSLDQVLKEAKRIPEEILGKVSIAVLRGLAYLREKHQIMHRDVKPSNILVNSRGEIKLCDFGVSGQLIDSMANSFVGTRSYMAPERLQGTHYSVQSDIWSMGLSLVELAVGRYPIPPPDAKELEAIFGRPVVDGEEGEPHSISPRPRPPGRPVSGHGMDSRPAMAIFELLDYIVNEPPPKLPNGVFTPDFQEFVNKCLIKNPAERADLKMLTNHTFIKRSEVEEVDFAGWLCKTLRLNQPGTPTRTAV
Sequence of Dual specificity mitogen-activated protein kinase kinase; MEK1/2 (Homo sapiens) (Q02750 whole entry, looked up): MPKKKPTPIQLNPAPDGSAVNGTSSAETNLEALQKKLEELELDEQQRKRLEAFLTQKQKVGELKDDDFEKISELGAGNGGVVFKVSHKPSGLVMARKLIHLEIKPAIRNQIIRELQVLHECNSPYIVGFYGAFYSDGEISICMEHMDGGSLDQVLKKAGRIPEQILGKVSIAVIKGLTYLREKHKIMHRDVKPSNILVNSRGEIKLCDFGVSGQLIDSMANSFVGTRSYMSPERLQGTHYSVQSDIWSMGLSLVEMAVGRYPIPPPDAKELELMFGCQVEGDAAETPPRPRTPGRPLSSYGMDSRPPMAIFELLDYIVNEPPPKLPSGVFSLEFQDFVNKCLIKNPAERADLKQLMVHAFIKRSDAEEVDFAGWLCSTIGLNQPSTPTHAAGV
Description: Inhibition of EGF-induced MEK1/2 activity in HEK293 cells assessed as phosphorylated ERK1/2 level at 10 uM after 1 hr by Western blotting relative to control

MDA-N = test: Cytotoxicity against human MDA-N cells at 10 uM assessed as cell growth relative to control; format: functional; conditions: read-out: Activity
NCI-H522 = test: Cytotoxicity against human NCI-H522 cells at 10 uM assessed as cell growth relative to control; format: functional; conditions: read-out: Activity
K562 = test: Cytotoxicity against human K562 cells at 10 uM assessed as cell growth relative to control; format: functional; conditions: read-out: Activity
HCT-116 = test: Cytotoxicity against human HCT116 cells at 10 uM assessed as cell growth relative to control; format: functional; conditions: read-out: Activity
PC-3 = test: Cytotoxicity against human PC3 cells at 10 uM assessed as cell growth relative to control; format: functional; conditions: read-out: Activity
SF-539 = test: Cytotoxicity against human SF539 cells at 10 uM assessed as cell growth relative to control; format: functional; conditions: read-out: Activity
SK-OV-3 = test: Cytotoxicity against human SKOV3 cells at 10 uM assessed as cell growth relative to control; format: functional; conditions: read-out: Activity
MDA-MB-231 = test: Cytotoxicity against human MDA-MB-231 cells at 10 uM assessed as cell growth relative to control; format: functional; conditions: read-out: Activity
IGROV-1 = test: Cytotoxicity against human IGROV1 cells at 10 uM assessed as cell growth relative to control; format: functional; conditions: read-out: Activity
NCI-H23 = test: Cytotoxicity against human NCI-H23 cells at 10 uM assessed as cell growth relative to control; format: functional; conditions: read-out: Activity
A498 = test: Cytotoxicity against human A498 cells at 10 uM assessed as cell growth relative to control; format: functional; conditions: read-out: Activity
M14 = test: Cytotoxicity against human M14 cells at 10 uM assessed as cell growth relative to control; format: functional; conditions: read-out: Activity
BT-549 = test: Cytotoxicity against human BT549 cells at 10 uM assessed as cell growth relative to control; format: functional; conditions: read-out: Activity
SNB-75 = test: Cytotoxicity against human SNB75 cells at 10 uM assessed as cell growth relative to control; format: functional; conditions: read-out: Activity
NCI/ADR-RES = test: Cytotoxicity against human NCI/ADR-RES cells at 10 uM assessed as cell growth relative to control; format: functional; conditions: read-out: Activity
RXF 393 = test: Cytotoxicity against human RXF393 cells at 10 uM assessed as cell growth relative to control; format: functional; conditions: read-out: Activity
SN12C = test: Cytotoxicity against human SN12C cells at 10 uM assessed as cell growth relative to control; format: functional; conditions: read-out: Activity
DU-145 = test: Cytotoxicity against human DU145 cells at 10 uM assessed as cell growth relative to control; format: functional; conditions: read-out: Activity
HOP-62 = test: Cytotoxicity against human HOP62 cells at 10 uM assessed as cell growth relative to control; format: functional; conditions: read-out: Activity
SK-MEL-5 = test: Cytotoxicity against human SK-MEL-5 cells at 10 uM assessed as cell growth relative to control; format: functional; conditions: read-out: Activity
SNB-19 = test: Cytotoxicity against human SNB19 cells at 10 uM assessed as cell growth relative to control; format: functional; conditions: read-out: Activity
OVCAR-5 = test: Cytotoxicity against human OVCAR5 cells at 10 uM assessed as cell growth relative to control; format: functional; conditions: read-out: Activity
U-251 = test: Cytotoxicity against human U251 cells at 10 uM assessed as cell growth relative to control; format: functional; conditions: read-out: Activity
HL-60(TB) = test: Cytotoxicity against human HL-60(TB) cells at 10 uM assessed as cell growth relative to control; format: functional; conditions: read-out: Activity
CCRF-CEM = test: Cytotoxicity against human CCRF-CEM cells at 10 uM assessed as cell growth relative to control; format: functional; conditions: read-out: Activity

`CC(C)Oc1cc(NCc2ccccc2)c2ncn(C(C)C)c2c1` gave an inhibition [1] of 22% and an inhibition [2] of 0%.
Work on `CCCOc1cc(NCc2ccccc2)c2ncn(C(C)C)c2c1` yielded an inhibition [1] of 24%.
Work on `CCOc1cc(NCc2ccccc2)c2ncn(C(C)C)c2c1` yielded an inhibition [1] of 63%.
`CCOCCOc1cc(NCc2ccccc2)c2ncn(C(C)C)c2c1` showed an inhibition [1] of 75% and an inhibition [2] of 100%.
Compound `CC(C)n1cnc2c(NCc3ccccc3)cc(OCCCN3CCOCC3)cc21` has an inhibition [1] of 0% and an inhibition [2] of 92%.
`N#CC(=C(/N)Sc1ccccc1N)/C(C#N)=C(\N)Sc1ccccc1N` was tested, and the inhibition [1] was 27%.
In the case of `CN1CCN(c2ccc3[nH]c(-c4ccc5[nH]c(-c6ccc(O)cc6)nc5c4)nc3c2)CC1` [HOECHST 33258], the growth at 10 µM (MDA-N) was -5.06%, the growth at 10 µM (NCI-H522) was -5.52% and the growth at 10 µM (K562) was -5.22%. The growth at 10 µM (HCT-116) was -4.52%, the inhibition [1] was 30% and the growth at 10 µM (PC-3) was -4%. For the same compound, the growth at 10 µM (SF-539) was -4%, the growth at 10 µM (SK-OV-3) was -4% and the growth at 10 µM (MDA-MB-231) was -4%. The growth at 10 µM (IGROV-1) was -4%, the growth at 10 µM (NCI-H23) was -4% and the growth at 10 µM (A498) was -4%. For the same compound, the growth at 10 µM (M14) was -4%, the growth at 10 µM (BT-549) was -4% and the growth at 10 µM (SNB-75) was -4%. For the same compound, the growth at 10 µM (NCI/ADR-RES) was -4%, the growth at 10 µM (RXF 393) was -4% and the growth at 10 µM (SN12C) was -4%. The growth at 10 µM (DU-145) was -4%, the growth at 10 µM (HOP-62) was -4% and the growth at 10 µM (SK-MEL-5) was -4.01%. The growth at 10 µM (SNB-19) was -4%, the growth at 10 µM (OVCAR-5) was -4% and the growth at 10 µM (U-251) was -4%. The growth at 10 µM (HL-60(TB)) was -4.62%, the growth at 10 µM (CCRF-CEM) was -4.89% and the inhibition [2] was 22%.
`COc1cc(N)c2c(c1)N(C(C)C)CN2` gave an inhibition [1] of 42% and an inhibition [2] of 18%.
`CCCCOc1cc(NCc2ccccc2)c2ncn(C(C)C)c2c1` gave an inhibition [1] of 5%.
